Assay results reported in patent publication US20060154907A1, “Method of treating hormonal deficiencies in women undergoing estrogen replacement therapy” (Barr Laboratories, Inc., priority 2000, published 2006).
Several values for one entry are separate records, joined by “and”; a condition that tells them apart may be missing. Equal values may be shown once.

Experiments:
[1] = tested on: uterine horns in mice; test: Weight of uterine horns in ovariectomized mice: estrogen, oxandrolone or combination; settings: second experiment (oxandrolone); for D Hs/BW (dry horns Rt + Lt / body weight) / Lt H D (left horn dry weight) / Rt H D (right horn dry weight): dried 90° C. 24 hrs; for W Hs/BW (wet horns Rt + Lt / body weight) / Lt H W (left horn wet weight) / Rt H W (right horn wet weight): daily injections 7 days
From the text: (§1) The protocol employed in the experiment included taking ovariectomized female mice ordered from Charles River Laboratories, of which the females were 32-52 days old, after ovariectomy, and separating them into four groups. The first group of mice received daily injections of testosterone for 7 days. A second group of mice received daily injections of estradiol for 7 days. A third group of mice received daily injections of testosterone plus estradiol for 7 days. Finally, the mice in the fourth group received daily injections of a control vehicle for 7 days. All of the injections were given 1M at 10 AM, alternatively to the right and left buttock. The daily amount injected of the estradiol and/or testosterone was 10 μg/Kg of each hormone, delivered at a dose of 0.25 ml.
(§2) The injections were produced based upon the following protocols. The estradiol selected was the oil-dissolved 17β-estradiol from Sigma (17β-estradiol E-8875. The estradiol was prepared by dissolving 200 μg of the hormone in 0.25 ml ethanol for a ×1000 stock (0.8 mg/1 ml=×1000 stock). Next, 10 μl aliquots were dispensed into nine 15 ml conical plastic tubes and frozen. For each injection, one of the tubes was thawed, 9.99 ml saline was added and then mixed to obtain 10 ml of the solution at a level of 0.8 μg/1 ml. Then, 0.25 ml were injected into each animal.
A second experiment was performed using the protocols set above. The only change included replacing testosterone with oxandrolone. The oxandrolone was prepared by dissolving a 20 mg powder of the original vial in 1.0 ml of DMSO. 100 μl aliquots were then dispensed into 10 new vials (each containing now 2 mg/vial, or 20 μg/μl) and all vials, except one, were frozen at −20° C. The 9 frozen vials are referred to herein as “Original Stocks”.
Next, one of the Original Stock vials containing 100 μl of 20 μg/μl Oxandrolone was diluted to a 1:5 ratio in DMSO by adding 400 μl DMSO. […] 50 μl aliquots were then dispensed into 10 vials (each containing now 0.4 μg/μl, or 20 μg/50 μl) of which nine were frozen. The frozen vials from this part of the experiment are herein referred to as “Diluted Stocks”.
One Diluted Stock vial was taken and diluted in 24.95 ml saline to get a solution of 20 μg/25 ml oxandrolone, or 0.2 μg/0.25 ml. The 0.5 ml aliquots are then dispensed into 20 vials and frozen. The remaining 15 ml were discarded. On the day of injection, each one of the vials was thawed 0.25 ml were injected into each animal based upon a 20 gm animal. The dose injected may be adjusted per actual weight of the animal (may vary from 19 gm to 24 gm, 0.238 ml to 0.3 ml).
After the last day of injections, the mice were weighed and then euthanized in a CO2 chamber. Blood was obtained from the heart in an amount of 2-5 ml. Time was allotted to let it clot and then it was centrifuged and the serum was collected and stored at −80° C. The abdomen was opened by a longitudinal ventral incision. Then the uterine horns were identified and the right horn was transected from the level of the vagina until the ovary (thus, without the ovary and without the parametrium). This process was repeated for the left horn. Both horns were weighed to determine the wet weight of the horns. Then the horns were placed on silver foil paper and baked in an oven at 90° C. for 24 hrs. Then the dry weight of the horns was taken.

[2] = tested on: uterine horns in mice; test: Weight of uterine horns in ovariectomized mice: estrogen, testosterone or combination; settings: daily injections 7 days, 10 μg/Kg of each hormone; for D Hs/BW (dry horns Rt + Lt / body weight) / Lt H D (left horn dry weight) / Rt H D (right horn dry weight): dried 90° C. 24 hrs
From the text: Applicants performed a set of experiments to determine the effects of estrogen and testosterone on weight of uterine horns in mice.
as §1, §2
The testosterone selected was testosterone enanthane from Bristol Myers Squib (Delatestryl™). The testosterone was prepared by aspirating […] from a bottle containing 200 mg/1 ml testosterone via a tuberculin syringe of 1.0 ml. Next, 24.9 ml of ethanol was poured into a 50 ml conical plastic tube. Then 0.1 ml of the testosterone was dissolved in the syringe with the 24.9 ml of ethanol. This produced a ×1000 stock of 0.8 mg/1 ml. Similar to the estradiol protocol, next, 10 μl aliquots were dispensed into nine 15 ml conical plastic tubes and frozen. For each injection, one of the tubes was thawed, 9.99 ml saline is added and then mixed to obtain 10 ml of the solution at a level of 0.8 μg/1 ml. Then, 0.25 ml were injected into each animal. The injections were based for a 20 gm animal. The dose injected per actual weight of the animal may be adjusted by varying the weight, i.e., may vary from 19 gm to 24 gm (0.238 ml to 0.3 ml).
After the seven days of injections, the mice were euthanized via injection from Lumina. The mice were then weighed. After midline laparotomy, 2 ml to 5 ml does of blood was obtained from the heart. The blood was allowed to clot and was then centrifuged and the resulting serum was collected and stored at −80° C. The uterine horns were then identified, transected from the level of the vagina till the ovary (without the ovary and without the parametrium), weighted (i.e., wet weight of Rt and Lt horn), and placed separately in a piece of silver foil paper, and baked in an oven at 90° C. for 24 hrs to obtain the dry weight of the horns.

[3] = individual animal, ovariectomized female mice

| SMILES | D Hs/BW (dry horns Rt + Lt / body weight) ([1]; group mean) [mg/gm] | W Hs/BW (wet horns Rt + Lt / body weight) ([1]; group mean) [mg/gm] | D Hs/BW (dry horns Rt + Lt / body weight) ([1]; individual animal) | Lt H D (left horn dry weight) ([1]; individual animal) | Rt H D (right horn dry weight) ([1]; individual animal) | Lt H W (left horn wet weight) ([1]; individual animal) | Rt H W (right horn wet weight) ([1]; individual animal) | W Hs/BW (wet horns Rt + Lt / body weight) ([1]; individual animal) | Lt H W (left horn wet weight) ([2]; group mean) [mg] | Rt H W (right horn wet weight) ([2]; group mean) [mg] | W Hs/BW (wet horns Rt + Lt / body weight) ([2]; group mean) [mg/gm] | D Hs/BW (dry horns Rt + Lt / body weight) ([2]; group mean) [mg/gm] | Lt H D (left horn dry weight) ([2]; group mean) [mg] | Rt H D (right horn dry weight) ([2]; group mean) [mg] | D Hs/BW (dry horns Rt + Lt / body weight) ([2]; individual animal) | Lt H D (left horn dry weight) ([2]; individual animal) | Rt H D (right horn dry weight) ([2]; individual animal) | Lt H W (left horn wet weight) [2, 3] | Rt H W (right horn wet weight) [2, 3] | W Hs/BW (wet horns Rt + Lt / body weight) [2, 3] |
| --- | --- | --- | --- | --- | --- | --- | --- | --- | --- | --- | --- | --- | --- | --- | --- | --- | --- | --- | --- | --- |
| C[C@]12CC[C@@H]3c4ccc(O)cc4CC[C@H]3[C@@H]1CC[C@@H]2O [E, 17β-estradiol] | 0.66 | 3.63 | 0.97 mg/gm and 0.60 mg/gm and 0.61 mg/gm and 0.49 mg/gm and 0.63 mg/gm | 12 mg and 4.8 mg and 7.7 mg and 4.6 mg and 5 mg | 9.9 mg and 7.3 mg and 4.7 mg and 6.5 mg and 8.0 mg | 44.9 mg and 29.7 mg and 48.1 mg and 34.4 mg and 32.7 mg | 46.7 mg and 41.2 mg and 30 mg and 35 mg and 44.2 mg | 4.06 mg/gm and 3.52 mg/gm and 3.82 mg/gm and 3.05 mg/gm and 3.70 mg/gm | 20.0 | 19.5 | 1.82 | 0.27 | 2.9 | 3.0 | 0.28 mg/gm and 0.21 mg/gm and 0.38 mg/gm and 0.24 mg/gm and 0.22 mg/gm | 2.9 mg and 2.2 mg and 4.2 mg and 2.6 mg and 2.4 mg | 3.3 mg and 2.5 mg and 4.0 mg and 2.4 mg and 2.6 mg | 21.5 mg and 18.0 mg and 24.2 mg and 19.5 mg and 16.7 mg | 20.6 mg and 16.2 mg and 26.6 mg and 17.3 mg and 16.9 mg | 1.92 mg/gm and 1.55 mg/gm and 2.37 mg/gm and 1.79 mg/gm and 1.47 mg/gm |
| C[C@]12COC(=O)C[C@@H]1CC[C@@H]1[C@@H]2CC[C@@]2(C)[C@H]1CC[C@]2(C)O [Ox, oxandrolone] | 0.35 | 1.54 | 0.26 mg/gm and 0.20 mg/gm and 0.76 mg/gm and 0.16 mg/gm and 0.37 mg/gm | 2.3 mg and 2.2 mg and 5.5 mg and 1.4 mg and 4.3 mg | 3.4 mg and 2.0 mg and 12.5 mg and 2.2 mg and 4.2 mg | 14.4 mg and 13.8 mg and 22.9 mg and 11.3 mg and 19.4 mg | 16.5 mg and 12.0 mg and 35.7 mg and 13.2 mg and 14.6 mg | 1.40 mg/gm and 1.22 mg/gm and 2.47 mg/gm and 1.11 mg/gm and 1.50 mg/gm | – | – | – | – | – | – | – | – | – | – | – | – |
| CCCCCCC(=O)O[C@H]1CC[C@H]2[C@@H]3CCC4=CC(=O)CC[C@]4(C)[C@H]3CC[C@]12C [T, testosterone enanthane] | – | – | – | – | – | – | – | – | 12.6 | 14.0 | 1.21 | 0.27 | 3.2 | 2.8 | 0.57 mg/gm and 0.25 mg/gm and 0.16 mg/gm and 0.09 mg/gm and 0.31 mg/gm | 8.2 mg and 4.3 mg and 0.8 mg and 0.9 mg and 1.9 mg | 4.3 mg and 1.1 mg (2×) and 2.5 mg and 4.8 mg | 21.3 mg and 15.6 mg and 3.7 mg and 8.4 mg and 13.9 mg | 16.2 mg and 11.7 mg and 13.5 mg and 8.4 mg and 20.1 mg | 1.72 mg/gm and 1.26 mg/gm and 0.81 mg/gm and 0.72 mg/gm and 1.55 mg/gm |
